Data published in patent US12410113B2, “Sandalwood-type fragrance compounds” (SYMRISE AG, priority 2019, dated 2025).

Experiment: Odor detection threshold (ODT) by olfactometer TO8 and a panel of experts according to EN 13725
Details: for ODT (exp.) (−log): odor detection threshold as −log; for ODT (exp.) / ODT* (exp.) (ppm (v/v)): odor detection threshold, olfactometer TO8, expert panel, EN 13725
Experimental: The ODT was measured by an olfactometer TO8 and a panel of experts according to standard EN 13725.

Structure (SMILES)	ODT (exp.) (−log)	ODT (exp.)	ODT* (exp.) (ppm (v/v))	factor by which threshold value is lower than Brahmanol (in comparison with Brahmanol)
CC1=CCC(CCC(C)CO)C1(C)C (stereo not shown) [Brahmanol, 2-methyl-4-(2′,2′,3′-trimethyl-3′-cyclopenten-1′-yl)-butan-1-ol, reference compound]	6.85E+00	141.22 ng/L	1.73E−02 ppm (v/v)	–
C=C(CO)CCC1CC=C(C)C1(C)C (stereo not shown) [Compound A, 2-methylene-4-(2,2,3-trimethylcyclopent-3-en-1-yl)butan-1-ol]	8.36E+00	4.34 ng/L	5.37E−04 ppm (v/v)	about 35
